Measured values taken from US10752593B2, “Compounds for use as therapeutically active substances in the treatment of retinal diseases” (ENDOGENA THERAPEUTICS, INC., priority 2018, dated 2020).

Test system: retinal precursor cells
Experiment: Sphere passaging and high-throughput drug screening: proliferation of retinal precursor cells within one week
Format: cell-based, mammalian
Conditions: for increase of cell proliferation within one week: increase over control, retinal precursor cells; for Cell proliferation within one week [%]: retinal precursor cells grown one week with compound in 0.1% DMSO, control without compound = 100
Experimental: Kynurenic Acid (0.2 mg/mL), trypsin (1.33 mg/mL), and hyaluronidase (0.67 mg/mL) were weighed out and dissolved in high magnesium/low calcium artificial cerebral spinal fluid (aCSF) at 37° C. Fibroblast growth factor 2 (FGF2; 10 ng/mL) and heparin (2 μg/mL) were added to 100 mL of serum-free media (SFM). Ovomucoid trypsin inhibitor (1 mg/mL) was dissolved in warm SFM and sterile filtered ([…]).
A dissecting microscope, cold light source, and sterile surgical instruments were set up inside of a sterile biological safety cabinet (BSC). Mammalian eyes were enucleated and placed in a petri dish containing cold, sterile aCSF. Under the dissecting microscope, hair, connective tissue, and the dorsal and ventral oblique muscles were cleared from the scleral/corneal border with two sets of forceps. Next, curved or angled micro-dissecting scissors were used to cleave any remaining extraocular muscle tissue, the optic nerve, and cut the eyeball into symmetrical halves; beginning and finishing the cut from the hole left by the optic nerve. Using two sets of forceps to grasp the cornea, the two eye halves were peeled apart. The lens, optic nerve, and vitreous were separated from the eye shells and the eye shells were transferred into a new petri dish (also containing cold, sterile aCSF). To isolate the ciliary epithelium (CE), eye shells were oriented with the cornea on the right and retinal pigmented epithelium (RPE) on the left. A pair of straight forceps were used to pin down the eye shell on the RPE side while a scalpel blade was inserted between the CE and the iris, using pressure to slice the iris/cornea side off from the rest of the shell. Next, the scalpel was run along the border between the CE and the RPE to obtain the CE isolated as a thin strip of tissue. The CE strips were then transferred to a 35 mm dish containing 2 mL of dispase solution (Sigma; T1005) and incubated for 10 minutes at 37° C. Next, the strips were transferred from dispase into a 35 mm dish containing 2 mL of sterile filtered kynurenic acid, trypsin and hyaluronidase solution and incubated at 37° C. for 10 minutes. After incubation, the dish was returned to the dissecting scope, and the CE strips were pinned down with straight, non-serrated forceps, while non-serrated curved forceps were used to scrape the CE off from the underlying sclera. The bare scleral strips were then discarded, such that only the CE cells remained in the enzyme solution. Using a fire-polished, cotton-plugged glass pipette, the cells and enzyme solution were transferred to a 15 mL tube and triturated approximately 45 times to break apart the tissue. The 15 mL tube/cell suspension was centrifuged for 5 minutes at 1500 rpm. The supernatant was gently aspirated from the resulting pellet using a fire-polished, cotton-plugged glass pipette and 2 mL of trypsin inhibitor solution was added to the pellet. Using a small borehole, fire-polished, cotton-plugged glass pipette, the sample was triturated approximately 45 times until it was a single-cell suspension. The 15 mL tube/cell suspension was centrifuged for 5 minutes at 1500 rpm. The supernatant was gently aspirated from the resulting pellet and 1-2 mL of SFM with FGF2 and heparin (plating media) was added. The cells and media were mixed to ensure a uniform cell suspension and a 10 uL sample was taken and cell density was determined. The cells were then seeded and cultured at 10c/μL in culture-treated plates or flasks. After one week, roughly 1 in 500 cells proliferated to form free-floating, clonal spheres greater than 80 μm in diameter.
Human-derived spheres were passaged using the kynurenic acid, trypsin, hyaluronidase enzyme solution with the addition of collagenase I (0.5 mg/mL), collagenase II (0.5 mg/mL) and elastase (0.1 mg/mL). Mouse-derived spheres were passaged using hyaluronidase (0.67 mg/mL), collagenase I (0.5 mg/mL), and collagenase II (0.5 mg/mL) dissolved in Accustase solution (Sigma; SCR005). […]

[1] = results table after the methods

| SMILES | increase of cell proliferation within one week [%] | Cell proliferation within one week [%] [1] [%] | Cell proliferation within one week [%] (concentration not given) |
| --- | --- | --- | --- |
| O=C(Cc1ccc(F)cc1F)Nc1ccc(-c2cnco2)c(Cl)c1 [Compound E0149, N-(3-chloro-4-(oxazol-5-yl)phenyl)-2-(2,4-difluorophenyl)acetamide] | 57 | 157 | 157 |
| COc1cc(NC(=O)Cc2ccccc2)ccc1-c1ccncc1 [Compound E1063, N-(3-methoxy-4-(pyridin-4-yl)phenyl)-2-phenylacetamide] | – | 130 | – |
| O=C(Cc1ccccc1OC(F)F)Nc1ccc(-c2cnco2)c(Cl)c1 [Compound E1020, N-(3-chloro-4-(oxazol-5-yl)phenyl)-2-(2-(difluoromethoxy)phenyl)acetamide] | – | 135 | 135 |
| O=C(Cc1ccccc1Cl)Nc1ccc(-c2ccncc2)cc1 [Compound E1060, 2-(2-chlorophenyl)-N-(4-(pyridin-4-yl)phenyl)acetamide] | 44 | 144 | – |
| O=C(Cc1ccc(F)cc1F)Nc1ccc(-c2cnco2)c(F)c1 [Compound E1045, 2-(2,4-difluorophenyl)-N-(3-fluoro-4-(oxazol-5-yl)phenyl)acetamide] | – | 140 | 140 |
| O=C(Cc1cccc(C(F)(F)F)c1)Nc1ccc(-c2cnco2)c(Cl)c1 [Compound E1018, N-(3-chloro-4-(oxazol-5-yl)phenyl)-2-(3-(trifluoromethyl)phenyl)acetamide] | – | 134 | 134 |
